Source: patent publication US20120270929A1, “MODULATION OF TTC39 EXPRESSION TO INCREASE HDL” (ISIS Pharmaceuticals, Inc., priority 2009, published 2012)
Oligonucleotides are written 5' to 3', each unit as a sugar letter and its base; * is a phosphorothioate linkage, no mark a phosphodiester; rarer units and linkages stand in square brackets, end groups in braces. Plain capitals give the bases only. e = 2'-O-(2-methoxyethyl) (MOE); [5mC] = 5-methylcytosine; d = 2'-deoxy (DNA)

Columns and labels:
murine TTC39B mRNA [1] = test: Dose-dependent antisense inhibition of murine TTC39B in mouse primary hepatocytes (Example 2); assay type: cell-based; settings: cytofectin, ~16 h
Procedure, shortened: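 Mouse primary hepatocytes (10,000/well) transfected via cytofectin with 25, 50, 100 or 200 nM antisense oligonucleotide for about 16 h. TTC39B mRNA quantified by real-time PCR, normalized to RIBOGREEN total RNA, as % inhibition versus untreated cells.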

murine TTC39B mRNA [2] = test: In vivo antisense inhibition of murine TTC39B mRNA in liver of C57BL/6 mice; design: species or system mouse; settings: 50 mg/kg/week, 6 weeks, relative to PBS control
Method: (§1) Four groups of five mice each were injected twice a week with 25 mg/kg (totaling 50 mg/kg/week) of ISIS 447114, ISIS 447118, ISIS 447143, or ISIS 447144 for 6 weeks. A control group of five mice was injected with phosphate buffered saline (PBS) twice a week for 6 weeks. Plasma samples were obtained before the start of treatment, at week 3 and at week 6. At the end of the treatment period, mice were fasted for 4 hours before being euthanized. Plasma and tissue samples were obtained for further analysis.
RNA was extracted from liver tissue for real-time PCR analysis of TTC39B using murine primer probe set mTtc39b_LTS00287. […] Results are presented as an average of the percent inhibition of TTC39B, relative to control.

APOA1 plasma protein = APOA1 plasma protein levels in C57BL/6 mice; assay type: in vivo, mouse; design: APOA1 plasma protein levels: unit not given here; settings: for APOA1 plasma protein % change over the baseline: 6 weeks
Method: as §1

PCSK9 mRNA = PCSK9 mRNA levels in C57BL/6 mice; assay type: in vivo, mouse; settings: 50 mg/kg/week, 6 weeks, compared to PBS control
Method: as §1
The effect of inhibition of TTC39B in mice on cholesterol homeostasis was studied. PCSK9 mRNA levels were measured using the murine primer probe set mPCSK9 (forward sequence ACCGACTTCAACAGCGTGC, designated herein as SEQ ID NO: 106; reverse sequence GGCTGTCACACTTGCTCGC, designated herein as SEQ ID NO: 107, probe sequence AGGATGGGACACGCTTCCACAGACAX, wherein X is a fluorophore, designated herein as SEQ ID NO: 108). LDLR mRNA levels were measured using the murine primer probe set mLDLR (forward sequence GACCGCAGCGAGTACACCA, designated herein as SEQ ID NO: 109; reverse sequence TCACCTCCGTGTCGAGAGC, designated herein as SEQ ID NO: 110, probe sequence […], designated herein as SEQ ID NO: 111). The results are presented as percentage inhibition compared to the PBS control.

[3] = Plasma cholesterol and triglycerides in C57BL/6 mice (Olympus AU400e); assay type: in vivo, mouse; settings: for total cholesterol % increase over baseline: 6 weeks, baseline average of 72 mg/dL
Method: as §1
To investigate the effect of inhibition of TTC39B on triglycerides and cholesterol levels in the plasma, samples were collected on weeks 0, 3, and 6, and total plasma cholesterol, LDL cholesterol, HDL cholesterol, and triglycerides were analyzed on an Olympus AU400e Analyzer.

[4] = Plasma glucose in C57BL/6 mice (glucose oxidase assay); assay type: in vivo, mouse
Method: as §1
Plasma glucose values were determined using a Beckman Glucose Analyzer II (Beckman Coulter) by a glucose oxidase assay. As presented in Table 14, there was no significant change in glucose levels after treatment with ISIS oligonucleotides.

[5] = Plasma NEFA and 3-HB in C57BL/6 mice; assay type: in vivo, mouse; design: 3-HB levels: unit not given here; settings: for 3-HB % change over the baseline / NEFA % change over the baseline: 6 weeks
Method: as §1
Effect of antisense inhibition of TTC39B on free fatty acid levels Plasma levels of non-esterified fatty acids (NEFA) and 3-hydroxybutyric acid (3-HB), which are the end-products of fatty acid oxidation, were measured using an automated clinical chemistry analyzer (Olympus Clinical Analyzer).

[6] = Liver function: plasma transaminases (ALT, AST) in C57BL/6 mice; assay type: in vivo, mouse
Method: as §1
To evaluate the impact of ISIS oligonucleotides on the hepatic function of the mice described above, plasma concentrations of transaminases were measured using an automated clinical chemistry analyzer (Olympus Clinical Analyzer). Measurements of alanine transaminase (ALT) and aspartate transaminase (AST) are expressed in IU/L. The results are presented in Tables 19 and 20 and indicate that the oligonucleotides were well tolerated.

[7] = Week 0 (before treatment), 50 mg/kg/week

CGGATGATTCTTGCTGGTAA (antisense e[5mC]*eG*eG*eA*eT*dG*dA*dT*dT*d[5mC]*dT*dT*dG*d[5mC]*dT*eG*eG*eT*eA*eA) [ISIS 447114]
percent inhibition of TTC39B mRNA (murine TTC39B mRNA [1]; 25 nM): 42%
percent inhibition of TTC39B mRNA (murine TTC39B mRNA [1]; 50 nM): 70%
percent inhibition of TTC39B mRNA (murine TTC39B mRNA [1]; 100 nM): 85%
percent inhibition of TTC39B mRNA (murine TTC39B mRNA [1]; 200 nM): 92%
% inhibition of TTC39B mRNA in liver (murine TTC39B mRNA [2]): 49%
APOA1 plasma protein % change over the baseline (APOA1 plasma protein; 50 mg/kg/week): +122%
APOA1 plasma protein levels (APOA1 plasma protein; [7]): +9
APOA1 plasma protein levels (APOA1 plasma protein; Week 3, 50 mg/kg/week): +12
APOA1 plasma protein levels (APOA1 plasma protein; Week 6, 50 mg/kg/week): +22
Percent inhibition PCSK9 mRNA levels (PCSK9 mRNA): 24%
total cholesterol % increase over baseline ([3]; 50 mg/kg/week): +61%
HDL cholesterol levels [3, 7]: 42 mg/dL
LDL cholesterol levels [3, 7]: 11 mg/dL
total cholesterol levels [3, 7]: 66 mg/dL
triglyceride levels [3, 7]: 107 mg/dL
HDL cholesterol levels ([3]; Week 3, 50 mg/kg/week): 47 mg/dL
HDL cholesterol levels (% change over baseline) ([3]; Week 3, 50 mg/kg/week): +14%
LDL cholesterol levels ([3]; Week 3, 50 mg/kg/week): 12 mg/dL
total cholesterol levels ([3]; Week 3, 50 mg/kg/week): 70 mg/dL
triglyceride levels ([3]; Week 3, 50 mg/kg/week): 66 mg/dL
HDL cholesterol levels ([3]; Week 6, 50 mg/kg/week): 96 mg/dL
HDL cholesterol levels (% change over baseline) ([3]; Week 6, 50 mg/kg/week): +130%
LDL cholesterol levels ([3]; Week 6, 50 mg/kg/week): 19 mg/dL
total cholesterol levels ([3]; Week 6, 50 mg/kg/week): 114 mg/dL
triglyceride levels ([3]; Week 6, 50 mg/kg/week): 113 mg/dL
glucose levels [4, 7]: 293 mg/dL
glucose levels ([4]; Week 3, 50 mg/kg/week): 229 mg/dL
glucose levels ([4]; Week 6, 50 mg/kg/week): 232 mg/dL
3-HB % change over the baseline ([5]; 50 mg/kg/week): +184%
NEFA % change over the baseline ([5]; 50 mg/kg/week): +144%
3-HB levels [5, 7]: 145
NEFA levels [5, 7]: 0.67 mEq/L
3-HB levels ([5]; Week 3, 50 mg/kg/week): 109
NEFA levels ([5]; Week 3, 50 mg/kg/week): 0.49 mEq/L
3-HB levels ([5]; Week 6, 50 mg/kg/week): 449
NEFA levels ([5]; Week 6, 50 mg/kg/week): 1.52 mEq/L
ALT levels [6, 7]: 46 IU/L
AST levels [6, 7]: 83 IU/L
ALT levels ([6]; Week 3, 50 mg/kg/week): 21 IU/L
AST levels ([6]; Week 3, 50 mg/kg/week): 29 IU/L
ALT levels ([6]; Week 6, 50 mg/kg/week): 40 IU/L
AST levels ([6]; Week 6, 50 mg/kg/week): 93 IU/L

GCAGCTCGATTCGGGCATGA (antisense eG*e[5mC]*eA*eG*e[5mC]*dT*d[5mC]*dG*dA*dT*dT*d[5mC]*dG*dG*dG*e[5mC]*eA*eT*eG*eA) [ISIS 447118]
percent inhibition of TTC39B mRNA (murine TTC39B mRNA [1]; 25 nM): 49%
percent inhibition of TTC39B mRNA (murine TTC39B mRNA [1]; 50 nM): 65%
percent inhibition of TTC39B mRNA (murine TTC39B mRNA [1]; 100 nM): 74%
percent inhibition of TTC39B mRNA (murine TTC39B mRNA [1]; 200 nM): 82%
% inhibition of TTC39B mRNA in liver (murine TTC39B mRNA [2]): 73%
APOA1 plasma protein % change over the baseline (APOA1 plasma protein; 50 mg/kg/week): +88%
APOA1 plasma protein levels (APOA1 plasma protein; [7]): +9
APOA1 plasma protein levels (APOA1 plasma protein; Week 3, 50 mg/kg/week): +13
APOA1 plasma protein levels (APOA1 plasma protein; Week 6, 50 mg/kg/week): +18
Percent inhibition PCSK9 mRNA levels (PCSK9 mRNA): 45%
total cholesterol % increase over baseline ([3]; 50 mg/kg/week): +37%
HDL cholesterol levels [3, 7]: 45 mg/dL
LDL cholesterol levels [3, 7]: 14 mg/dL
total cholesterol levels [3, 7]: 71 mg/dL
triglyceride levels [3, 7]: 82 mg/dL
HDL cholesterol levels ([3]; Week 3, 50 mg/kg/week): 50 mg/dL
HDL cholesterol levels (% change over baseline) ([3]; Week 3, 50 mg/kg/week): +15%
LDL cholesterol levels ([3]; Week 3, 50 mg/kg/week): 13 mg/dL
total cholesterol levels ([3]; Week 3, 50 mg/kg/week): 77 mg/dL
triglyceride levels ([3]; Week 3, 50 mg/kg/week): 69 mg/dL
HDL cholesterol levels ([3]; Week 6, 50 mg/kg/week): 100 mg/dL
HDL cholesterol levels (% change over baseline) ([3]; Week 6, 50 mg/kg/week): +89%
LDL cholesterol levels ([3]; Week 6, 50 mg/kg/week): 15 mg/dL
total cholesterol levels ([3]; Week 6, 50 mg/kg/week): 97 mg/dL
triglyceride levels ([3]; Week 6, 50 mg/kg/week): 88 mg/dL
glucose levels [4, 7]: 242 mg/dL
glucose levels ([4]; Week 3, 50 mg/kg/week): 271 mg/dL
glucose levels ([4]; Week 6, 50 mg/kg/week): 238 mg/dL
3-HB % change over the baseline ([5]; 50 mg/kg/week): +157%
NEFA % change over the baseline ([5]; 50 mg/kg/week): +90%
3-HB levels [5, 7]: 158
NEFA levels [5, 7]: 0.67 mEq/L
3-HB levels ([5]; Week 3, 50 mg/kg/week): 111
NEFA levels ([5]; Week 3, 50 mg/kg/week): 0.51 mEq/L
3-HB levels ([5]; Week 6, 50 mg/kg/week): 406
NEFA levels ([5]; Week 6, 50 mg/kg/week): 1.18 mEq/L
ALT levels [6, 7]: 29 IU/L
AST levels [6, 7]: 88 IU/L
ALT levels ([6]; Week 3, 50 mg/kg/week): 39 IU/L
AST levels ([6]; Week 3, 50 mg/kg/week): 39 IU/L
ALT levels ([6]; Week 6, 50 mg/kg/week): 50 IU/L
AST levels ([6]; Week 6, 50 mg/kg/week): 127 IU/L
